According to patent US12269801B2, “Modified amino acids” (SUTRO BIOPHARMA, INC., priority 2012, dated 2025):

Columns and labels:
[1] = Reactivity of amino acid analogs with DBCO-NH2 (61), absorption at 310 nm; type: physicochemical; conditions: 1:1 equivalence; for reaction rate with compound (61): pH 7.4 phosphate buffered saline, compared among analogs; for yield of reaction with compound (61): in six hours
Protocol: DBCO-NH2 (61) was dissolved in pH 7.4 phosphate buffered saline to yield a 500 µM solution. Amino acid analogs (30), (1), and (2) were dissolved in the same buffer to yield 5 mM clear solutions, and then diluted to a concentration of 500 μM using the same buffer. One hundred microliters of each amino acid analog was mixed with 100 μL of compound (61) and vortexed. The absorption of compound (61) was monitored at 310 nm using a NANODROP 1000 UV Spectrometer. Measurements were obtained at 0, 0.5, 2, 6, and 20 hours. The reduction in the absorption of compound (61) is indicative of its reaction with the amino acid analogs.

[2] = Reactivity of azido amino acids with DBCO analog (60), loss of DBCO absorbance at 310 nm; type: physicochemical; conditions: reaction with compound (60); for second-order rate constant: PBS buffer, 25° C., from plot of kobs vs. [Azide]; for rate constant fold higher than compound (50): relative to compound (50)
Protocol: DBCO analog (60), was dissolved in acetonitrile to a concentration of 60 μM. Amino acid analogs (30), (40), and (50) were serially diluted in PBS buffer in the wells of a 96-well microtiter plate to a volume of 180 μL. 20 μL of DBCO analog stock solution was added to each well and the kinetics of the loss of DBCO to form the addition adduct was monitored at 310 nm by absorbance using a SpectraMax plate reader at 25° C. A schematic of the reaction of compounds (30), (40), and (50) with compound (60) is shown as FIG. 1. The kinetics accurately fit a first order decay with […], where kobs is the pseudo first order rate constant with units of sec^−1 under conditions where [Azide compound]>>[DBCO]. A plot of kobs vs. [Azide] yields the second-order rate constant (units of M^−1 sec^−1) for each amino acid, a measure of the intrinsic chemical reactivity of each amino acid.

Y50TAG site in GFP = assay: Cell-free (OCFS) incorporation into GFP at amber codon, fluorescence time course; type: biochemical
Text: This example describes incorporation of compound (30) into green fluorescent protein. To monitor synthesis of GFP, the DNA encoding turboGFP containing an amber codon (stop codon) before the chromophore was cloned into OCFS expression vector pYD317. The stop codon (TAG) was inserted by overlapping PCR mutagenesis at the nucleotides corresponding to the amino acid tyrosine at the 50th amino acid according to the crystal structure of turboGFP (pdb 2G6X).
[…] OCFS reaction mix was immediately added to microplate for a 30 μL final reaction volume containing 30% S30 extract, 24 μg/mL T7 RNA polymerase, 1 mM L-tyrosine (Sigma, T8566), pre-mix*, 10 μM tRNA, 5 μM pCNFRS D286R, 1 mM compound (30), and 3 nM turboGFP plasmid (Evrogen, Russia, subcloned into a PYD317 vector) in DEPC-treated water (G Biosciences, 786-109). A positive control reaction using turboGFP without the stop codon was used to ensure that the reactions proceeded with rates similar previously observed, while reactions containing turboGFP Y50TAG were also run without tRNA to ensure no fluorescence was detected (negative control) in the absence of the system responsible for incorporation of pAMF. Incorporation of pAMF into GFP achieves relatively high yields of protein in a site-specific manner.

human GMCSF = assay: Cell-free incorporation into GM-CSF at amber codon, autoradiography; type: biochemical; conditions: 1 mM compound (30), TAG at serine position 6
Protocol: DNA encoding human GMCSF with amber codon was cloned into expression vector pYD317. The TAG codon was inserted by overlapping PCR mutagenesis at the nucleotides corresponding to the amino acid serine at the position 6.
(§1) Cell-free extracts containing tRNA CUA were thawed to room temperature and incubated with 50 μM iodoacetamide for 30 min. Cell-free reactions were run at 30 C for up to 10 h containing 30% (v/v) iodoacetamide-treated extract with 8 mM magnesium glutamate, 10 mM ammonium glutamate, 130 mM potassium glutamate, 35 mM sodium pyruvate, 1.2 mM AMP, 0.86 mM each of GMP, UMP, and CMP, 2 mM amino acids for all 18 amino acids except tyrosine and phenylalanine which were added at 0.5 mM, 4 mM sodium oxalate, 1 mM putrescine, 1.5 mM spermidine, 15 mM potassium phosphate, 100 nM T7 RNAP, 1.3 μM E. coli DsbC, 2 mM oxidized (GSSG) glutathione, 1 μM tRNA synthetase, and 1 mM compound (30). The concentrations of GMCSF TAG variant plasmid was 5 μg/mL. […]
(§2) For reducing gel, 4 μL of sample, 1 μL of 1 M DTT, 7 μL of DI H2O and 4 μL of 4×LDS buffer (Invitrogen, Carlsbad, CA) were mixed and heated in hot blot at 70 C for 5 minutes. Samples were analyzed by 4˜12% Bis-Tris SDS-PAGE gels (Invitrogen, Carlsbad, CA) according to the manufacturer's recommendations. Gels were dried and analyzed by autoradiography using a Storm 840 PhosphoImager after about 16 hours exposure.

trastuzumab heavy chain = assay: Cell-free incorporation into IgG at heavy chain amber codon, autoradiography; type: biochemical; conditions: 1 mM compound (30), TAG at serine position 136 (EU index)
Protocol: TAG codon was inserted by overlapping PCR mutagenesis at the nucleotides corresponding to the amino acid serine at the position 136 by EU index in CHI domain.
as §1, with “extracts” for “extracts containing tRNA CUA”, “DsbC, 5 μM yeast PDI,” for “DsbC,”, “glutathione, 15 μM tRNA,” for “glutathione,”, “heavy chain” for “GMCSF”, “and wild type light chain plasmid were 7.5 μg/mL and 2.5 μg/mL respectively.” for “was 5 μg/mL.”
as §2, with “For non” for “For”, “8” for “1 μL of 1 M DTT, 7”, “before being loaded on gel. […]” for “and heated in hot blot at 70 C for 5 minutes.”

| SMILES | reaction rate with compound (61) [1] | second-order rate constant [2] | yield of reaction with compound (61) [1] | rate constant fold higher than compound (50) [2] | further results |
| --- | --- | --- | --- | --- | --- |
| [N-]=[N+]=NCc1ccc(C[C@H](N)C(=O)O)cn1 [compound (2)] | two- to four-fold slower |  |  |  |  |
| [N-]=[N+]=Nc1ccc(C[C@H](N)C(=O)O)cc1 [compound (50), p-azido-phenylalanine, reference compound] |  | 0.2 M⁻¹ s⁻¹ |  |  |  |
| [N-]=[N+]=NCc1ccc(C[C@H](N)C(=O)O)cc1 [compound (30)] | comparable rates | 1.4 M⁻¹ s⁻¹ | almost quantitative yield | approximately 7 fold | RFU (Y50TAG site in GFP; at 200 minutes): approximately 130,000 RFU; RFU (Y50TAG site in GFP; at 400 minutes): approximately 160,000 RFU; RFU (Y50TAG site in GFP; at 600 minutes): approximately 170,000 RFU; incorporation into GMCSF by autoradiography (human GMCSF): intact full length GMCSF containing compound (30) was made; incorporation into IgG by autoradiography (trastuzumab heavy chain): intact full length IgG containing compound (30) was made |
| [N-]=[N+]=NCc1ccc(CC(N)C(=O)O)nc1 (stereo not drawn) [compound (1), 2-Amino-3-(5-azidomethyl-pyridin-2-yl)-propionic Acid] | comparable rates |  | almost quantitative yield |  |  |
| [N-]=[N+]=NCCCC(=O)NCCCC[C@H](N)C(=O)O [compound (40)] |  | 1.4 M⁻¹ s⁻¹ |  | approximately 7 fold |  |
